Data on 7 compounds can be found in ChEMBL document CHEMBL5104151, “Synthesis of new pyrazolo[4,3-a]phenanthridine Pim-1 inhibitors and evaluation of their cytotoxic activity towards the MOLM-13 acute myeloid leukemia cell line” (Bioorg Med Chem Lett, 2022).

In series [1] the test system is MOLM-13. In words: Antiproliferative activity against human MOLM-13 cells measured after 72 hrs by WST-1 assay. The note with it: MOLM-13, 72 h. The format is functional, cell-based. A general note: Tetrazolium assays rely on reduction of a dye to a coloured formazan, in cell work by metabolically active cells.
The test system of series [2] is MOLM-13. Nature of the series: Induction of apoptosis in human MOLM-13 cells incubated for 72 hrs and assessed as presence of apoptotic nuclei. In kind it is functional, cell-based. The note with it: MOLM-13, 72 h.
For series [3], the system named is MOLM-13. Nature of the series: Antiproliferative activity against human MOLM-13 cells measured after 24 hrs by WST-1 assay. The format is functional, cell-based. The note with it: MOLM-13, 24 h.
A short description of series [4]: Cytotoxicity against rat NRK cells measured after 72 hrs by WST-1 assay. In kind it is toxicity, cell-based.
Series [5] has as its target T1, Serine/threonine-protein kinase pim-1 (Homo sapiens, UniProt P11309). In words: Inhibition of full-length human Pim-1 using RSRHSSYPAG as substrate incubated in presence of [gamma33P]ATP.
Target sequence in this assay (P11309 whole entry): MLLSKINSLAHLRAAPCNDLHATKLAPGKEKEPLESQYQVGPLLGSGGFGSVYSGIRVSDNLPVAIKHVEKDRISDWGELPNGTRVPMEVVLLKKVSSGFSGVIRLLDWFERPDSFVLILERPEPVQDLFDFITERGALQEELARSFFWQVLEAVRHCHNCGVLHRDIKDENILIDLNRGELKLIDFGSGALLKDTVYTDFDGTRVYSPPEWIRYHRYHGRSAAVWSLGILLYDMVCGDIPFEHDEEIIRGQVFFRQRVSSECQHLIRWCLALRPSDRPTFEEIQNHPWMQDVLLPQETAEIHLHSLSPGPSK
Series [6] deals with T1, Serine/threonine-protein kinase pim-1. Nature of the series: Inhibition of full-length human Pim-1 using RSRHSSYPAG as substrate incubated in presence of [gamma33P]ATP and assessed as residual activity at 1 uM relative to control.
Target sequence in this assay (P11309 whole entry, looked up): as the sequence (P11309 whole entry) above
Series [7] shares this target. In words: Inhibition of full-length human Pim-1 using RSRHSSYPAG as substrate incubated in presence of [gamma33P]ATP and assessed as residual activity at 10 uM relative to control.
Target sequence in this assay (P11309 whole entry, looked up): as the sequence (P11309 whole entry) above

For orientation: EC50 means the concentration at which the effect is half-maximal. Broadly, the IC50 is the midpoint of a concentration-inhibition curve.

With `O=[N+]([O-])c1cc2[nH]ncc2c2c1ncc1ccccc12`, the EC50 is 200 nM with MOLM-13 [1], 3.7 µM in the series on MOLM-13 [2] and 0.8 µM in the series on MOLM-13 [3]. This compound also came in with an EC50 at 72 h in series [4] of more than 30 µM.

As for `O=[N+]([O-])c1cc2[nH]nc(I)c2c2c1ncc1ccccc12`, the EC50 in the series with MOLM-13 [1] amounted to 1700 nM; with MOLM-13 [2], 6.6 µM; in the series on MOLM-13 [3], 3.5 µM. The IC50 in series [5] stood at 50 nM. For the same compound, the figures for the Activity in series [6] and in series [7] were 8.6% and 1.4%, respectively. It took 28 µM to reach a half-maximal effect in series [4] (EC50 at 72 h).

Consider `C=Cc1n[nH]c2cc([N+](=O)[O-])c3ncc4ccccc4c3c12`, for which the EC50 with MOLM-13 [1] turned out to be 1700 nM; in the series on MOLM-13 [2], 4.6 µM; in the series on MOLM-13 [3], 2.9 µM. In addition, the IC50 in series [5] worked out at 31 nM. The Activity in series [6] was found to be 5.3%; in series [7], 1.5%. In series [4], this compound showed an EC50 at 72 h of 24 µM.

In the case of `NC(=O)c1cc2[nH]ncc2c2c1ncc1ccccc12`, the EC50 with MOLM-13 [1] is 2500 nM; in the series with MOLM-13 [2] it was more than 250 µM. Further, in series [5], the IC50 came to 125 nM. Further, the Activity is 23% in series [6] and 7% in series [7].

As to `COC(=O)c1cc2[nH]ncc2c2c1ncc1ccccc12`, the EC50 with MOLM-13 [1] came to 30000 nM; with MOLM-13 [2], 61 µM; with MOLM-13 [3] it was 50 µM. The Activity in series [6] amounted to 38%; in series [7] it was 21%.

As to `O=C(O)c1cc2[nH]ncc2c2c1ncc1ccccc12`, the EC50 was 62000 nM with MOLM-13 [1], more than 250 µM in the series with MOLM-13 [2] and more than 250 µM in the series with MOLM-13 [3]. Also, the Activity in series [6] amounted to 77%; in series [7] it was 29%.

On to `FC(F)(F)c1cc2[nH]ncc2c2c1ncc1ccccc12`, for which the EC50 with MOLM-13 [1] was 1200 nM; in the series with MOLM-13 [2], more than 250 µM. Also, the values for the Activity in series [6] and in series [7] were 43% and 18%, respectively.
